Columns and labels:
[1] = system: Chronic Inflammatory Demyelinating Polyradiculoneuropathy (CIDP); test: Clinical case, Chronic Inflammatory Demyelinating Polyradiculoneuropathy (Example 9); format: in vivo, human; details: daily oral product, after three weeks
From the text: patient three is a person who presents with a history of multiple allergies, infections (including viral meningitis/aseptic encephalitis), multiple episodes of antibiotic treatments, etc. They describe their physical status historically as follows: “I have been seriously ill since 1991 with progressive neurologic deficits, which culminated with significant loss of motor control in 1993. The condition was misdiagnosed as Multiple Sclerosis with negative findings on Mill.” They initially ambulated slowly with the use of a cane. In 1994 they were paralyzed from the neck down. They were treated with Ig intravenously and recovered over a period of weeks. Five months later, they experienced a similar episode. This time the Ig therapy was only weakly helpful, and they as treated with therapeutic plasma exchanges every two weeks. They have recently been experiencing significant pains in their extremities and HEPES was started orally both for pain control and possible reinforcement of any myelinating defects, as our medical colleagues in the Netherlands have had significant success in reversing the demyelination process.

[2] = system: Pediatric Autoimmune Neurological Disease Associated with Strep (PANDAS); test: Clinical case, Pediatric Autoimmune Neurological Disease Associated with Strep (PANDAS) (Example 7); format: in vivo, human; details: for frequency of athetotic movements: intravenous
Cerebral Palsy = test: Clinical case, cerebral palsy patient (Example 2); format: in vivo, human; details: oral 5,000 mg daily
From the text: patient five is a child of extraction, whose birthing was extremely difficult, and very probably associated with some degree of neonatal asphyxia, although this was not seriously reflected in the Apgar Score. The person has had superb medical care all their life long with loving and supportive parents able to provide recommended therapies.
Despite the abundance of treatment programs, it required nearly five years for […] to walk slowly in an unassisted manner. Amazingly, their speech pattern and intellectual capabilities were remarkably functional. A major problem was their significant dysfunction with motor skills in their hands. M.S. was given an oral dosage of HEPES of 5,000 mg daily (2 tsps with breakfast, 1 tsp mid-afternoon, and 2 tsps at bedtime). […] After 8 months of therapy, their walking and manual skills have improved to 85% of normal. They became devoted to spending several hours daily on the computer and the amount of knowledge they have acquired and retained is, indeed, phenomenal. The change in this young person has been outstanding and truly gratifying to their parents, their siblings, and especially their physicians.

[3] = system: cell cultures of both animal and human origin; details: studies not specified; cited from earlier work
[4] = system: Post Chemotherapy Cognitive Impairment (PCCI); test: Clinical case, post chemotherapy cognitive impairment (Example 3); format: in vivo, human; details: PCCI patient, oral 5,000 mg daily in divided doses, after a month
From the text: patient two is a person who, prior to their diagnosis of breast cancer, has been in charge of the family business involving a host of necessary transactions, including maintenance of financial records and tax liabilities. Post chemotherapy they had profound difficulty remembering what day it was, what time it was, had they taken their morning bath, what to cook for any meal, forgetfulness as to daily chores, transporting their children to school-sponsored events, suddenly breaking telephone conversations with their concerned parent without any recall of the action. The major deficit business-wise was the inability to perform simple mathematical calculations. […] They thought they “was going bonkers!” Their parent inquired as to what could be done to alleviate the rapidly deteriorating family problems. A trial on HEPES was recommended as the symptoms were, at least in part, related to demyelination. They were started on oral HEPES, 5,000 mg daily in divided doses. […] They continue to show improvement in a gratifying manner.

Cancer of the Pancreas = test: Clinical case, cancer of the pancreas with metastases: analgesic and anti-tumor activity (Example 6); format: in vivo, human
Method: The pain was not relieved by passing bowel movements or any other maneuver. They were seen by their personal physician, who diagnosed Type II diabetes mellitus. They were placed on anti-diabetic medication and diet. No additional studies related to the abdominal pain were carried out, even though they were peculiar in a patient with diabetes. Their diabetic state was under satisfactory control with a few weeks, but the abdominal pain problem persisted.
The abdominal pains increased in intensity with new severe pains in the mid-dorsal thoracic spine. […] They underwent radiation treatments for the thoracic lesions which eased, to a limited extent, the pain in this area.
In consultation with the patient ombudsmen group at M. D. Anderson Hospital in Houston, Tex., the family was told that none of the current study protocols were appropriate for their current condition of cancer of the pancreas with wide-spread metastases and such advanced disease. They were given 2-4 months to live. It was recommended that they be treated with pain protocols by the local institutions in the Dallas-Fort Worth area. They were treated by their personal physician who placed them on opiate analgesics for pain control.
In February, 2006, their personal physician contacted the present inventors concerning the possible addition of HEPES as they were receiving the maximal level of opiate medication, which was not controlling the pain the patient was experiencing. In March, 2006, they were placed on a daily dosage of the product administered by intravenous infusion, while continuing their maximum opiate analgesic medication.
In July, 2006, they developed significant anorexia, probably secondary to the increasing levels of endogenous TNF-alpha (cachectic factor). Dronabinol was recommended, but refused by the patient owing to the medication being derived from marijuana. Thereafter, natural source inhibitors of cachectic factor (Table 2) were recommended, but the patient refused to take any of these as they felt these might interfere with the pain control, which was acceptable. They were then offered parenteral nutritional support, which they declined.
From mid-November, 2006, […] developed weakness associated with continued weight loss, and from late November became bed-ridden. […] 2006. While the death certificate lists the cause of death as cancer of the pancreas, in truth the cause of death was terminal anorexia, inanition, and malnutrition, with more than 65 pound weigh loss.

[5] = General clinical administration of HEPES: effective dosage and tolerability; format: in vivo, human
Method: The product, HEPES, is produced in ultra-pure form and is available from GIBCOL Technologies, Inc. The product is administered on a body weight basis with the determined minimal effective daily dosage of 70-75 mg/kg. The material may be safely given either by oral or parenteral routes. […] The administered product is prepared by a compounding pharmacist, with the dosage of each patient recipient being individualized.

[6] = system: Benzodiazepine Withdrawal Symptoms; test: Clinical case, benzodiazepine withdrawal symptoms (Example 8); format: in vivo, human
From the text: patient five is a person, who was initially placed on benzodiazepine medication for panic attacks which presented. They have been on various forms of medications constituting this group for more than three decades. The dilemma which exists is that often the original condition for which the diazepines are prescribed are considered to be psychiatric in nature. When pain and neurological symptoms appear associated with withdrawal, it is often misdiagnosed with additional medications given which compounds the problem. These medications are recommended for short term treatment (4-6 weeks) only, but as with this patient, usage extends over years. One of the major withdrawal symptoms include violent repetitive “tics” which are considerably worsened with emotional situations and other stressors. Abnormal ideation often takes the form of bizarre thoughts as the functioning of the superego is marked impaired. Thus, these patients do things which under normal conditions would never contemplate, much less act out. As a result of these factors, our patient lost their successful business, their houses, and their family comprised of their spouse and three beautiful daughters. They walk with a hopping motion associated with bizarre flailing movements of the shoulder and arms. On the internet are listings of more than 300 withdrawal symptoms. The present inventors were consulted on this patient to see if we could ameliorate their extreme pain problems. Their neurologic examination was truly strange. […] They were started on HEPES by the oral route. […] They will be closely monitored as to their condition with additional treatment.

Parkinson's Disease = test: Clinical cases, Parkinson's Disease patients (Examples 4 and 5); format: in vivo, human
From the text: […] The family history is positive. They have been tried on a variety of Parkinsonian medications, the beneficial actions of which seem to disappear within a few months.
The hand tremor was present only to a small degree, but the head tremors and tics were very prominent to the degree that […] would become nauseated if […] kept […] vision pinpointed.
patient one is a person who has had Parkinsonian symptoms since they were […]. They were placed on levo-dopa with gradual increases to six per day along with large doses of Mirapex and polyethylene glycol for their problem with constipation. Their constipation was really quite intractable with abdominal distention and protrusion, nausea and vomiting. Also very worrisome was their diminished deglutitionary activity and tongue biting with oral bleeding. They were unable to stand without assistance and their hesitant walk favored the festinative aspects. […] Over time the daily dosage of levodopa was reduced from the prescribed 6 per day to 2 per day to which a small dose of the dopamine agonist, bromocriptine, was added with singularly beneficial results. Their condition improved to the extent that they were again able to drive themself to the store, buy gasoline, and eat out. Most, most gratifying, indeed!
They were placed on an active bowel treatment program with good results which, when required was supplemented with an enema q.o.d. They continued to be monitored closely.

Multiple Sclerosis = test: Clinical case, Multiple Sclerosis patient (Example 1); format: in vivo, human; details: MS patient
From the text: patient four is a public elementary school teacher, who was diagnosed with MS when they were […].
Mentally, they often experienced periods of lack of concentration and follow-through of immediate projects, generalized muscular stiffness and lack of fine motor coordination with episodes of lurching gait and imbalance. Very bothersome was their manual discoordination which adversely influenced their writing on the chalk board. Indeed, the symptoms were so frequent that their teaching contract was not renewed. They subsequently obtained employment at an academically excellent small Episcopal school where the classes were small and the stress level was considerably less compared with the public school system.
Despite these changes of venue, they had more frequent exacerbations and remissions and experienced multiple medication programs with their very concerned neurologist physician. They continued to use block letters on the blackboard rather than cursive black-board writing as a form of communicating with their students.
After a particularly severe episode of problems, they completely lost the ability to write (e.g., writing a payment check) owing to the loss of manual sensory function and erratic motor movements. The present inventors were asked to see them by the school administrator, who served as their friend and confidant. […]

[7] = continued daily product at 75 mg/kg
[8] = Example 5 patient, 6,000 mg daily, continued treatment

## O=S(=O)(O)CCN1CCN(CCO)CC1 [HEPES, N-2-hydroxyethylpiperazine-N′-2-ethanesulfonic acid]
[1]
  pain in extremities: completely controlled
  weakness in lower extremities: almost completely resolved
[2]; 70-75 mg/kg level achieved, end of the first week, 1,300-1,500 per day before
  frequency of athetotic movements: 10-15 per day
[2]; end of the second week
  frequency of athetotic movements: 2-3 movements per day
[2]; oral medication at the same daily dosage, during the next three weeks, triggered by emotional or stressful circumstances
  involuntary athetoid movements: infrequent involuntary athetoid movements
[2]; product decreased gradually, no product being given
  tics after product withdrawn: tic-free
Cerebral Palsy; after 8 months of therapy
  walking and manual skills: 85 % of normal
Cerebral Palsy; after three weeks
  movement and control of hands and fingers: improved to the point where they could selectively (upon oral command) depress the correct key on the computer
  walking pattern: considerable improvement with significant reduction in ataxic characteristics
[3]
  cytotoxicity compared with other buffers: least cytotoxicity of all the known buffers
[4]
  brain fog ("cloud"): the “cloud” was gone
Cancer of the Pancreas; HEPES administration with reduced opiate narcotic analgesia
  opiate side-effects: elimination of opiate side-effects
Cancer of the Pancreas; daily intravenous HEPES, narcotic medication slowly reduced over three months
  opiate analgesic dosage giving good pain control: about 25 % of the maximum dosage of the opiate analgesics
Cancer of the Pancreas; daily intravenous infusion added to maximum opiate analgesic medication, after 5 days
  pain: completely controlled
Cancer of the Pancreas; pancreatic cancer with wide-spread metastases, several additional months of quality living
  anti-tumor effect: a significant anti-tumor effect
[5]; administered on a body weight basis
  minimal effective daily dosage: 70 to 75 mg/kg
[5]; general statement on the HEPES product
  side-effects: no side-effects
[5]; oral and parenteral routes
  side-effects: without any significant side-effects
[6]; [7]
  athetoid movements: significant reduction in their athetoid movements
  gait: improved gait
  ideation: more cogent ideation
  pain (jaws and teeth, shoulder joints and muscles, precordial chest, temples): significant relief of their pain
[6]; oral route, after four days on the product
  dorsiflexion of left foot on neurologic examination: normal dorsiflexion of their left foot
Parkinson's Disease; Example 4 patient, 5,000 mg daily in divided doses, within a three-week period
  muscular fatigue, stiffness, and tics: all disappeared
Parkinson's Disease; Example 4 patient, 5,000 mg daily, after another couple of weeks
  patient-reported overall condition: felt like they were before the diagnosis was made
Parkinson's Disease; Example 5 patient, 6,000 mg HEPES daily, over time, reduced from the prescribed 6 per day, bromocriptine added
  daily dosage of levodopa needed: 2 per day
Parkinson's Disease; Example 5 patient, 6,000 mg daily in divided doses, within three days
  swallowing difficulties and tongue biting: obviated their swallowing difficulties and abrogated their tongue biting
Parkinson's Disease; [8]
  energy level: improved significantly
  facial mask: completely disappeared
Multiple Sclerosis; continued on the oral medication
  motor function and exacerbations on continued medication: maintained their motor function as well as being free of new exacerbations
Multiple Sclerosis; oral HEPES 5,000 mg daily, after only three days of treatment
  ability to write: regained the ability to write cursively and sign their name in a legible fashion
